Several values for one entry are separate records, joined by “and”; a condition that tells them apart may be missing. Equal entries are not always repeated.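 Step 1: Grow cells in 96-well plates. Step 2: Expose to compound for 48 hours at 5 concentrations. Step 3: Interpolate endpoints linearly; if unreached, use highest concentration. GI50 marks 50% less growth. The concentration for full growth arrest is given as TGI.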
How the values were obtained:
Assay in all cases: growth of human tumour cells (NCI), 48 h
[1] = system: MALME-3M melanoma
[2] = system: OVCAR-3 ovarian
[3] = system: TK-10 renal
[4] = system: HS 578T breast
[5] = system: HL-60(TB) leukemia
[6] = system: NCI-H226 lung
[7] = system: HT29 colon
[8] = system: SK-MEL-2 melanoma
[9] = system: CAKI-1 renal
[10] = system: UO-31 renal

Row | SMILES | GI50 [1] | TGI [1] | GI50 [2] | TGI [2] | GI50 [3] | TGI [3] | GI50 [4] | TGI [4] | GI50 [5] | TGI [5] | GI50 [6] | TGI [6] | GI50 [7] | GI50 [8] | TGI [8] | GI50 [9] | TGI [9] | GI50 [10] | TGI [10] | TGI [7]
1 | C#C[C@@]1(O)[C@@H](CO)O[C@@H](n2ccc3c(N)ncnc32)[C@@H]1O | 1.68 µM | 5.55 µM | 2.96 µM | 12 µM | 2.65 µM | 9.48 µM | 4.67 µM | > 100 µM | 1.57 µM | 5.49 µM | 2.05 µM | 4.85 µM | 0.97 µM | 1.37 µM | 6.32 µM | – | – | – | – | –
2 | CCN(C(=O)CCl)C(C)(C)C(SSSC(c1ccc(Cl)cc1)C(C)(C)N(CC)C(=O)CCl)c1ccc(Cl)cc1 (centres undefined) | 2.21 µM | 3.97 µM | 8.46 µM | 21.6 µM | 2.5 µM | 7.92 µM | 3.36 µM | 18.8 µM | 2.1 µM | 7.92 µM | 15 µM | 33.4 µM | 2.65 µM | 6.14 µM | 18.7 µM | 4.09 µM | 15.4 µM | 3.88 µM | 15.3 µM | 8.23 µM
3 | CC1(C)N=C(N)N=C(N)N1c1cccc(CCCCc2ccccc2)c1 | 2.31 µM | 14.8 µM | 0.35 µM | 8.74 µM | 0.704 µM | 20.3 µM | 4.57 µM | 28.5 µM | 0.0925 µM | 2.52 µM | 2.35 µM | 24.5 µM | 0.0543 µM | 1.82 µM | 11.4 µM | 4.15 µM | 22.3 µM | 10.2 µM | 32 µM | 11.6 µM
4 | Nc1ncnc2c(C3OC(CO)C(O)C3O)[nH]nc12 (centres undefined) | 0.519 µM | 5.33 µM and 2.75 µM | 0.168 µM and 0.071 µM | 1.79 µM and 0.377 µM | 0.0778 µM | 2.48 µM | 0.533 µM | 5.34 µM | 0.0142 µM | 0.111 µM | 0.529 µM and 0.793 µM | 5.83 µM and 10.7 µM | – | 0.0507 µM | 0.739 µM and 0.5 µM | 0.0365 µM and 0.061 µM | 0.281 µM and 0.214 µM | 0.0619 µM | – | 10.5 µM and 4.62 µM
5 | CN(C)C(=O)c1cc2cnc(Nc3ccc(-c4csc5c(=O)cc(N6CCNCC6)oc45)cc3)nc2n1C1CCCC1 | 1.38 µM | 2.94 µM | 0.871 µM | 2.72 µM | 1.34 µM | 14.6 µM | 0.943 µM | 4.39 µM | 0.271 µM | 1.72 µM | 1.61 µM | 15.3 µM | 0.438 µM | 2.09 µM | 7.14 µM | 0.819 µM | 12.9 µM | 1.64 µM | 4.58 µM | 2.99 µM
6 | O=C(O)c1ccc(NCc2nc3cc4ccccc4cc3[nH]2)cc1 | – | 0.237 µM | – | > 100 µM | – | > 100 µM | – | > 100 µM | – | > 54.8 µM | – | > 100 µM | – | – | > 86.3 µM | – | > 100 µM | – | > 100 µM | > 100 µM
7 | C/C(=N\NC(=O)c1ccccc1O)c1cccc(/C(C)=N/NC(=O)c2ccccc2O)n1 | 0.522 µM | 43.9 µM and > 100 µM | 1.06 µM and 0.362 µM | 24.3 µM and > 53.5 µM | 0.614 µM | > 80.6 µM | > 100 µM | > 100 µM | 0.784 µM and 0.504 µM | – | 5.8 µM and 3.79 µM | > 100 µM | – | – | 38.9 µM and > 100 µM | – | > 100 µM | – | 52.5 µM and > 57.4 µM | > 100 µM
8 | COc1ccc2[nH]c(=O)c(/C=C/C(=O)/C=C/c3ccc(O)c(OC)c3)cc2c1 | 2.16 µM | 5.28 µM | 1.18 µM | 2.55 µM | 2.29 µM | 5.72 µM | 3.81 µM | > 100 µM | 2.24 µM | > 100 µM | 2.14 µM | 6.07 µM | 0.777 µM | 2.47 µM | 6.24 µM | 1.71 µM | 3.1 µM | 1.47 µM | 2.79 µM | 2.12 µM
9 | O=C(NC(=S)NNC(=S)NNc1ccccc1)c1ccccc1 | 24.2 µM | > 100 µM | 18.2 µM | > 100 µM | 35.4 µM | > 100 µM | 1.55 µM | > 100 µM | 3.27 µM | 8.52 µM | 4.62 µM | > 100 µM | 15.1 µM | 4.11 µM | > 100 µM | 4.75 µM | > 100 µM | 4.69 µM | > 100 µM | > 100 µM
10 | S=C=NCc1ccccc1 | – | 19.6 µM | – | 11.3 µM | – | 12.2 µM | – | 53.6 µM | – | 3.95 µM | – | 15 µM | – | – | > 59 µM | – | 4.26 µM | – | 6.74 µM | > 31.3 µM
11 | C/C1=C\C/C=C(\C)[C@H]2CC(CC/C(C)=C/CC1)[C@@](C)(CO)O2 | – | – | > 100 µM | > 100 µM | – | – | > 100 µM | > 100 µM | 16.8 µM | 51.1 µM | > 100 µM | > 100 µM | > 100 µM | 44.9 µM | > 100 µM | 44.9 µM | > 100 µM | 21.7 µM | 89.9 µM | > 100 µM
12 | O=C(NNc1ccccc1)OCc1ccccc1 | 20.1 µM | 96.6 µM | 21 µM | > 100 µM | 32.9 µM | > 100 µM | 70.2 µM | > 100 µM | 3.55 µM | 58.7 µM | – | – | 54.6 µM | 15.7 µM | > 100 µM | 1.02 µM | 14.2 µM | 2.88 µM | 37 µM | > 100 µM
13 | CC1=CC2=C(C(N)=O)C(=O)OC2(C)C(c2ccccc2)C1 (centres undefined) | – | > 100 µM | – | > 100 µM | – | > 100 µM | – | > 100 µM | – | > 100 µM | – | > 100 µM | – | – | > 100 µM | – | – | – | > 100 µM | > 100 µM
14 | COc1cc2ccnc3c2c(c1OC)-c1ccc(=O)ccc1-3 | 37.9 µM | 75.5 µM | 21.8 µM | 56.2 µM | 35.1 µM | 83.5 µM | 36.6 µM | > 100 µM | – | – | 17.7 µM | 45.8 µM | 14.8 µM | 52.6 µM | > 100 µM | 16.5 µM | 39.5 µM | 30 µM | > 100 µM | 68.9 µM

Reference: PubChem BioAssay (NCI)
